From PubChem BioAssay (NCI)
Values joined by “and” are separate entries in the source; they are usually repeats but may differ in a detail not shown here. Identical values can stand only once.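 Cultured in 96-well plates, cells were exposed to test compound for 48 hours across five concentrations. The concentration for 50% growth inhibition is given as GI50. Definition used: TGI = concentration required for complete inhibition of growth.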

How the values were obtained:
Assay in all cases: NCI anticancer screen, dose series, 48 h
SK-MEL-28 melanoma = test system: SK-MEL-28 melanoma
CAKI-1 renal = test system: CAKI-1 renal
OVCAR-5 ovarian = test system: OVCAR-5 ovarian
A498 renal = test system: A498 renal
COLO 205 colon = test system: COLO 205 colon
M14 melanoma = test system: M14 melanoma
786-0 renal = test system: 786-0 renal
HCT-116 colon = test system: HCT-116 colon
UO-31 renal = test system: UO-31 renal
U251 CNS = test system: U251 CNS

Compound	GI50 (SK-MEL-28 melanoma)	TGI (SK-MEL-28 melanoma)	GI50 (CAKI-1 renal)	TGI (CAKI-1 renal)	GI50 (OVCAR-5 ovarian)	TGI (OVCAR-5 ovarian)	GI50 (A498 renal)	TGI (A498 renal)	GI50 (COLO 205 colon)	TGI (COLO 205 colon)	GI50 (M14 melanoma)	TGI (M14 melanoma)	GI50 (786-0 renal)	TGI (786-0 renal)	GI50 (HCT-116 colon)	TGI (HCT-116 colon)	GI50 (UO-31 renal)	TGI (UO-31 renal)	GI50 (U251 CNS)	TGI (U251 CNS)
O=[N+]([O-])c1ccc(-c2cc3c(Nc4ccc(Cl)c(C(F)(F)F)c4)ncnc3s2)cc1	2.24 µM	> 100 µM	2.22 µM	8.32 µM	1.35 µM	> 100 µM	0.706 µM	3.42 µM	1.79 µM	3.35 µM	2.86 µM	> 100 µM	1.1 µM	> 20.6 µM	1.51 µM	> 100 µM	1.13 µM	> 26.7 µM	1.38 µM	> 87.8 µM
CC(=Nc1ccc(S(N)(=O)=O)cc1)c1c(O)[nH]c2ccccc12	> 25 µM	> 25 µM	17.1 µM	> 25 µM	> 25 µM	> 25 µM	> 25 µM	> 25 µM	> 16 µM	> 25 µM	> 25 µM	> 25 µM	> 25 µM	> 25 µM	> 22.8 µM	> 25 µM	7.37 µM	> 25 µM	> 25 µM	> 25 µM
Cc1cc2c(cc1Cl)S/C(=C/C(=O)O)C(Nc1cccc3nsnc13)=NS2(=O)=O	8.06 µM	19.4 µM	56 µM	> 76.6 µM	34.6 µM	> 67.4 µM	> 100 µM	> 100 µM	> 48.3 µM	> 61.5 µM	> 47 µM	> 60.5 µM	36.5 µM	> 62.2 µM	33.5 µM	> 59.2 µM	> 51.1 µM	> 79.2 µM	35.6 µM	> 71.7 µM
Cn1c(=O)nc2n(-c3ccc(Cl)c(C(F)(F)F)c3)c3ccccc3nc-2c1=O		> 100 µM		> 100 µM		> 100 µM		> 100 µM		49.9 µM		> 91.3 µM		> 100 µM		> 79.4 µM		> 100 µM		> 100 µM
COc1ccc(C2=C(N3CCc4ccccc43)C(=O)NC2=O)cc1	> 25 µM	> 25 µM	> 25 µM	> 25 µM	> 25 µM	> 25 µM	> 16.6 µM	> 25 µM	> 25 µM	> 25 µM	> 25 µM	> 25 µM	> 25 µM	> 25 µM	> 25 µM	> 25 µM	9.88 µM	> 25 µM	> 25 µM	> 25 µM
O=C(CC1(O)C(=O)Nc2c(Cl)ccc(Cl)c21)c1ccc(Cl)cc1Cl (stereo not given)		38.8 µM		64.2 µM		35.6 µM		42.5 µM		31.7 µM		25.9 µM		27.8 µM		33.1 µM		37.1 µM		21.9 µM
COc1cccc(COc2cc(-n3cnc4ccccc43)sc2C(N)=O)c1	> 24 µM	> 25 µM	> 25 µM	> 25 µM	14.2 µM	> 25 µM	0.92 µM	> 25 µM	4.75 µM	> 25 µM	> 25 µM	> 25 µM	> 25 µM	> 25 µM	12.8 µM	> 25 µM	> 25 µM	> 25 µM	> 13.6 µM	> 25 µM
CC(=O)n1c(=O)c2cc3c(=O)n(-c4cccc(C#N)c4)c(=O)c3cc2c1=O		> 100 µM		> 100 µM		> 100 µM		> 100 µM		> 100 µM		> 100 µM		> 100 µM		> 100 µM		> 100 µM		> 100 µM
c1ccc2[nH]c(CNc3ccc(C4C[Se]N=N4)cc3)nc2c1 (stereo not given)		> 100 µM		> 100 µM		> 100 µM		> 100 µM		> 100 µM		> 100 µM		> 100 µM		> 100 µM		> 100 µM		> 100 µM
CCOc1ccc(Nc2c3ccccc3nc3ccccc23)cc1	0.855 µM and 0.378 µM	6.51 µM and 2.32 µM	0.359 µM and 0.376 µM	3.32 µM and 1.75 µM	1.91 µM and 0.514 µM	18.3 µM and 13.2 µM	0.307 µM and 0.332 µM	6.81 µM and 3.02 µM	0.313 µM and 0.307 µM	1.39 µM and 1.33 µM	0.359 µM and 0.312 µM	1.51 µM and 1.69 µM	0.666 µM and 0.34 µM	6.67 µM and 2.61 µM	0.335 µM and 0.318 µM	1.32 µM and 2.81 µM	0.677 µM and 0.356 µM	3.99 µM and 3.74 µM	0.464 µM and 0.381 µM	2.25 µM and 1.9 µM
O=C(NCCN1CCNCC1)c1ccc(Nc2nc3ccccc3c3occc23)cc1	2.57 µM	8.45 µM	15.6 µM	32.3 µM	15 µM	29.5 µM	16.2 µM	36.3 µM	10.6 µM	> 100 µM	1.94 µM	3.98 µM	8.06 µM	21.6 µM	4.11 µM	15.8 µM	11.1 µM	27.9 µM	17.9 µM	33.1 µM
N#C/C(=C1\SC(N=Nc2ccc(Cl)cc2)C(=O)N1c1ccccc1)c1nc2ccccc2[nH]1 (stereo not given)		> 100 µM		> 100 µM		> 100 µM		58.4 µM		> 100 µM		> 100 µM		26.8 µM		> 100 µM		40 µM		44.8 µM
COc1ccc(C(=O)c2nc3ccccc3n2CC(=O)c2ccc(Cl)cc2)cc1	3.02 µM	> 100 µM	53.6 µM	> 100 µM	> 82.3 µM	> 100 µM	4.07 µM	39.4 µM	11.3 µM	> 83.7 µM	2.27 µM	> 100 µM	3.88 µM	> 100 µM	3.15 µM	> 100 µM	7.04 µM	> 100 µM	3.41 µM	> 100 µM
CC(C)Oc1ccc(C(=O)Cn2ccnc2)cc1-n1c(CN2CCN(C(=O)COc3ccc(Cl)cc3)CC2)nc2ccccc2c1=O	14.1 µM	29.9 µM	4.04 µM	9.25 µM	17.6 µM	42.4 µM	14.1 µM	28.6 µM	7.34 µM	32.7 µM	14 µM	32.6 µM	1.3 µM	5.48 µM	8.68 µM	24.9 µM	1.56 µM	2.98 µM	13.2 µM	30.2 µM
COc1cc2nc(-c3ccc(C(F)(F)F)cc3)cc(OCCCN3CCCC3)c2cc1OC	1.69 µM	5.65 µM	0.245 µM	14 µM	0.803 µM	18.9 µM	1.07 µM	4.31 µM	0.398 µM	4.54 µM	0.303 µM	1.05 µM	1.88 µM	6.03 µM	0.333 µM	4.29 µM	1.59 µM	14.2 µM	1.31 µM	18.8 µM
CN(C)C(=S)Nc1nnc(Nc2ccccc2)s1		> 100 µM		> 100 µM		> 100 µM		> 100 µM		> 100 µM		> 100 µM		> 100 µM		> 100 µM		> 100 µM		> 100 µM
CC(C)(C)c1ccc(OC2CCO2)cc1 (stereo not given)		> 100 µM		> 100 µM		98.7 µM		> 100 µM		70.5 µM		> 100 µM		63.3 µM		41.8 µM		> 100 µM		35.3 µM
CCN(CC)c1ccc(/C=C/C2=[N+](C)c3ccccc3C2(C)C)c(C)c1	0.151 µM	2.73 µM	0.926 µM	12 µM	0.128 µM	16.8 µM	0.11 µM	4.02 µM	0.0489 µM	0.127 µM	0.0853 µM	1.64 µM	0.0941 µM	1.88 µM	< 0.02 µM	3.82 µM	0.088 µM	2.53 µM	0.0364 µM	2.54 µM
Cc1ccc(-n2nc(C(C)(C)C)cc2NC(=O)NCc2cc(F)ccc2Oc2ccc3c(cnn3CCO)c2)cc1	0.511 µM and 0.989 µM	> 20.9 µM	9.61 µM and 6.5 µM	> 100 µM	> 10 µM and 1.89 µM	> 31.6 µM	1.02 µM and 1.48 µM	9.34 µM and 6.97 µM	0.795 µM and 1.86 µM	> 10 µM and 10.9 µM	0.649 µM and 1.31 µM	> 28.5 µM	> 10 µM and 8.58 µM	> 100 µM	2.34 µM and 2.46 µM	> 36.3 µM	1.33 µM and 2.76 µM	> 55.5 µM	> 10 µM and 7.01 µM	> 100 µM
CCCCCCCCCCCCCCCCCCOCC(COCCOCC[N+]1(CCCCCC(=O)[O-])CCCC1)Oc1ncccn1 (stereo not given)		22.2 µM		22.7 µM		13.9 µM		9.55 µM		3.77 µM		22.7 µM		22.2 µM		15.8 µM		23.6 µM		8.5 µM
CC(C)(C)NCC(COc1ccc([N+](=O)[O-])cc1)OP(c1ccccc1)c1ccccc1 (stereo not given)		> 100 µM		> 100 µM		> 100 µM		> 100 µM		> 100 µM		> 100 µM		> 100 µM		> 100 µM		> 100 µM		> 100 µM
CCn1c(-c2nonc2N)nc2ccncc21	> 25 µM	> 25 µM	> 25 µM	> 25 µM	> 25 µM	> 25 µM	> 25 µM	> 25 µM	> 25 µM	> 25 µM	> 25 µM	> 25 µM	> 25 µM	> 25 µM	> 25 µM	> 25 µM	> 25 µM	> 25 µM	> 25 µM	> 25 µM
Cc1ccc(NC(=O)/C(Cc2cc(=O)oc3cc(O)ccc23)=N\NC(=O)C[N+](C)(C)C)cc1C		> 100 µM		> 100 µM		> 100 µM		> 100 µM		> 100 µM		> 100 µM		> 100 µM		> 100 µM		> 100 µM		> 100 µM
O=C1c2cccc3cccc(c23)C(=O)N1O		> 100 µM		> 100 µM		> 100 µM		> 100 µM		> 100 µM		> 100 µM		> 100 µM		> 100 µM		> 100 µM		> 100 µM
COC(=O)c1ccc2c(c1)C(=O)c1c-2n(CCCN=[N+]=[N-])c(=O)c2cc([N+](=O)[O-])ccc12	> 100 µM	> 100 µM	> 100 µM	> 100 µM	> 100 µM	> 100 µM	> 100 µM	> 100 µM	> 100 µM	> 100 µM	> 100 µM	> 100 µM	25.1 µM	79 µM	47.4 µM	> 100 µM	> 100 µM	> 100 µM	18 µM	48.8 µM
COc1ccc(-c2c(C3=NCCCN3)nnn2-c2ccc([N+](=O)[O-])cc2)cc1		> 100 µM		> 100 µM		> 100 µM		> 100 µM		> 100 µM		> 100 µM		> 100 µM		> 100 µM		> 100 µM		> 100 µM
Cc1cccc(C)c1N1C(=O)C(=O)C(c2nc3ccccc3s2)C(=Nc2cccc3c(=O)[nH][nH]c(=O)c23)C1=O (stereo not given)		> 100 µM		> 100 µM		> 100 µM		> 100 µM		> 100 µM		> 100 µM		> 100 µM		> 100 µM		> 100 µM		> 100 µM
CC(C)[O-].CC(C)[O-].CN(CCN(C)Cc1cc(F)cc(F)c1[O-])Cc1cc(F)cc(F)c1[O-].[Ti+4]	0.692 µM	2.17 µM	0.874 µM	6.45 µM	1.51 µM	8.78 µM	1.13 µM	2.76 µM	1.62 µM	4.86 µM	0.638 µM	2.3 µM	1.48 µM	5.7 µM	0.792 µM	4.86 µM	0.977 µM	5.46 µM	0.438 µM	1.83 µM
OCc1ccc(N2CCOCC2)cc1Cl	> 100 µM	> 100 µM	> 100 µM	> 100 µM	2.42 µM	10.6 µM	0.224 µM	0.926 µM	25 µM	> 68.1 µM	> 100 µM	> 100 µM	> 100 µM	> 100 µM	28.6 µM	> 100 µM	> 100 µM	> 100 µM	> 72.2 µM	> 100 µM
CCCCCCCCCCCCCC[n+]1cccc(C(N)=O)c1	2.01 µM	5.52 µM	0.964 µM	6.52 µM	1.62 µM	6.25 µM	5.57 µM	29.2 µM	1.29 µM	2.72 µM	1.58 µM	3.6 µM	1.32 µM	2.82 µM	1.61 µM	3.97 µM	9.42 µM	26.3 µM	0.652 µM	2.11 µM
